The record followed here is PubChem BioAssay (NCI).

Several values for one entry are separate records, joined by “and”; a condition that tells them apart may be missing. Equal entries are not always repeated.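 Protocol summary: plate cells (96-well), add compound at 5 concentrations, incubate 48 h, interpolate endpoints linearly. Here, GI50 denotes the concentration required for 50% inhibition of growth. TGI: total growth inhibition.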

The subject of this assay is MDA-MB-468 breast. Put plainly: growth of human tumour cells (NCI), 48 h.
For the compound `Cc1c2c[n+](C(C)C)ccc2c(C)c2c1[nH]c1ccccc12`, the GI50 is 0.312 µM and the TGI amounted to 1.97 µM.
With `CCCCCCCCCCCCSC(=N)N`, the GI50 was 6.21 µM and the TGI turned out to be 20.5 µM.
The corresponding values for `COc1cccc2c1C(=O)c1c(O)c3c(c(O)c1C2=O)C[C@@](O)(C(=O)CO)C[C@@H]3OC1C[C@H](N)[C@H](O)[C@H](C)O1` (stereo partly drawn) are 0.0253 µM and 0.123 µM.
As to `O=C(Nc1ccccc1O)c1ccc(Oc2cccc(C(=O)Nc3ccccc3O)c2)cc1`, the GI50 was 2.17 µM and the TGI was 8.16 µM.
`O=Nc1ccc2ccccc2c1O`: the GI50 is 13.4 µM and the TGI was 34.9 µM.
On to `C=CC(=O)N[C@H]1CCOC[C@H]1Nc1ncc2cc(-c3c(Cl)c(OC)cc(OC)c3Cl)ccc2n1`, for which the GI50 was 9.16 µM and the TGI stood at 44.7 µM.
The corresponding values for `CC(C)NC(=O)OCc1c(COC(=O)NC(C)C)c(-c2ccc(Cl)cc2)n2c1CCC2` are 0.928 µM and 2.5 µM.
As for `COc1ccc(C(=O)c2cc3c(OC)c(OC)c(OC)cc3[nH]2)cc1`, the GI50 was 2.64 µM and the TGI is more than 100 µM.
`COc1ccc2nc3cc(Cl)ccc3c(NCCCNCCC(C)O)c2c1` (stereo not drawn): the GI50 is 0.313 µM and the TGI was determined as 1.78 µM.
As for `Cc1c(C)[n+](=O)c(C)c(C)n1[O-]`, the GI50 is more than 100 µM and the TGI was more than 100 µM.
For `CN1CCN(Cc2ccc(NC(=O)c3ccc(C#Cc4c(N)ncc5ccc(F)cc45)cc3)cc2C(F)(F)F)CC1`, the GI50 was 0.998 µM and the TGI was 1.97 µM.
As for `Cn1cc(-c2cnc3ccc4ccc(CS(=O)(=O)NCc5ccccn5)cc4c(=O)c3c2)cn1`, the GI50 was 10.9 µM and the TGI is 29 µM.
On the same counts, the results for `NC1=NC(c2ccc(Cl)cc2)C2=C(N1)/C(=C/c1ccc(Cl)cc1)CCC2` (stereo not drawn) are 3.49 µM and 13.9 µM.
Regarding `CSc1ccc2c3c(n(C[C@H](O)CO)c(=O)c2c1)-c1ccccc1C3=O`, the GI50 was 1.87 µM and the TGI is 5.78 µM.
For `O=C(CCl)N1c2ccccc2Sc2ccc3ccccc3c21`, the GI50 is 0.351 µM and the TGI came to 1.46 µM.
As for `c1cn2cc(-c3ccc4cn[nH]c4c3)nc(Nc3ccc(N4CCOCC4)cc3)c2n1`, the GI50 is 8.59 µM and the TGI is 32.4 µM.
For `O=C(Nc1ccc(Cl)c(C(F)(F)F)c1)Nc1ccc2c(ccn2C(=O)c2cccc(F)c2)c1`, the GI50 is 1.83 µM and the TGI was 4.96 µM.
On to `COc1ccc(Cl)cc1NC(=O)C(Br)C(Br)C(=O)O` (stereo not drawn), for which the GI50 was 0.567 µM and the TGI was determined as 2.27 µM.
For the compound `N#CCc1ncc(-c2ccc(C(F)(F)F)cc2)c(NC2CCCCCC2)n1`, the GI50 is more than 10 µM and the TGI is more than 10 µM.
As for `C=C1C(=O)O[C@H]2[C@H]1CC/C(COC(=O)NCCc1c[nH]c3ccc(OC)cc13)=C\CC[C@@]1(C)O[C@@H]21`, the GI50 is 1.19 µM and the TGI was determined as 2.91 µM.
For `Cc1cc(Nc2ncnc3ccc(NC4=NC(C)(C)CO4)cc23)ccc1Oc1ccn2ncnc2c1`, the GI50 is 1.78 µM and 2.18 µM; the TGI is 12.7 µM and > 10 µM.
In the case of `O=C(N/N=C/c1ccc([N+](=O)[O-])cc1)c1ccc2nc(-c3ccc(Cl)cc3)[nH]c2c1`, the GI50 is 1.97 µM and the TGI was found to be 4.79 µM.
The corresponding values for `C#CC(F)(F)[C@]1(O)CC[C@H]2[C@@H]3CCC4=CC(=O)CCC4=C3[C@@H](c3ccc(C(C)=O)cc3)C[C@@]21C` are 7.69 µM and 34.1 µM.
For `CCOP(=O)(OCC)OC[C@]12CCC(C)(C)C[C@H]1C1=CC[C@@H]3[C@@]4(C)C/C(=C\c5cccnc5)[C@H](OP(=O)(OCC)OCC)C(C)(C)[C@@H]4CC[C@@]3(C)[C@]1(C)CC2`, the GI50 was 1.12 µM and the TGI stood at 2.5 µM.
On the same counts, the results for `COC(=O)[C@]12CC[C@@H](C)[C@H](C)[C@@H]1C1=CC[C@@H]3[C@@]4(C)C=C(O)C(=O)[C@@]5(C)COC(=C54)C[C@@]3(C)[C@]1(C)CC2` are 4.88 µM and 19.9 µM.
For `COc1cc(/C=C2\CN(C)C/C(=C\c3cc(CN4CCCCC4)c(O)c(OC)c3)C2=O)cc(CN2CCCCC2)c1O`, the GI50 is 3.79 µM and the TGI amounted to 14.7 µM.
The corresponding values for `O=C(O)c1cc2cc(OCc3ccccc3)c(OCc3ccccc3)cc2[nH]1` are 17.9 µM and 36.7 µM.
Take `Cc1cc(C)c(O)c(CN(C)Cc2cc(Cl)cc(Cl)c2O)c1`: the GI50 is 2.83 µM and the TGI came to 11.8 µM.
For `O=C(Nc1ccc(Cl)cc1)c1cc(-c2ccc(Cl)cc2)c2sc(=O)[nH]c2n1`, the GI50 was 1.73 µM and the TGI came out at 6.62 µM.
As to `C=C1C(=O)O[C@H]2[C@H]1CC/C(COC(=O)CSCC(=O)OC/C1=C/CC[C@@]3(C)O[C@H]3[C@H]3OC(=O)C(=C)[C@@H]3CC1)=C\CC[C@@]1(C)O[C@@H]21`, the GI50 was 1.42 µM and the TGI was 3.5 µM.
In the case of `C/C=C/CC(C)C(O)C1C(=O)NC(CC)C(=O)N(C)CC(=O)N(C)C(CC(C)C)C(=O)NC(C(C)C)C(=O)N(C)C(CC(C)C)C(=O)NC(C)C(=O)NC(C)C(=O)N(C)C(CC(C)C)C(=O)N(C)C(CC(C)C)C(=O)N(C)C(C(C)C)C(=O)N1C` (stereo not drawn), the GI50 is 0.872 µM and the TGI turned out to be 6.63 µM.
For the compound `CCN1c2ccccc2C(Cl)(c2ccc(N(C)C)cc2)c2ccccc21`, the GI50 was 3.36 µM and the TGI turned out to be 15.5 µM.
Regarding `O=c1cc(-c2ccccc2)[nH]n1-c1nc2ccccc2[nH]1`, the GI50 is 4.3 µM and the TGI came to 45.9 µM.
Regarding `CN(C)C(=O)c1cc2cnc(Nc3ccc(-c4csc5c(=O)cc(N6CCOCC6)oc45)cc3)nc2n1C1CCCC1`, the GI50 is 0.122 µM and the TGI came out at 0.397 µM.
On the same counts, the results for `Cc1cc(Cc2cc(C)cc(C(C)(C)C)c2O)c(O)c(C(C)(C)C)c1` are 11.4 µM and 24.2 µM.
The corresponding values for `O=C(N/N=C/c1ccccc1O)C(=O)Nc1ccc(F)cc1` are 4.41 µM and more than 100 µM.
The corresponding values for `COc1ccc2c(c1)C(=O)/C(=C/c1ncc([N+](=O)[O-])n1C)O2` are 1.7 µM and 4.12 µM.
Consider `COc1ccccc1/C=N\N=C(N/N=C/c1ccccc1OC)N/N=C/c1ccccc1OC`, for which the GI50 was 3.51 µM and the TGI is 10.7 µM.
Take `COc1ccc2c(c1)C(c1ccccc1Cl)=Nc1c(n[nH]c1C)N2`: the GI50 is more than 16.8 µM and the TGI was more than 25 µM.
Regarding `NS(=O)(=O)c1cccc(N=Cc2c(O)[nH]c3ccccc23)c1`, the GI50 was more than 25 µM and the TGI is more than 25 µM.
Take `CC(=O)O/N=C1/C(c2c(O)[nH]c3cc(Br)ccc23)=Nc2ccccc21`: the GI50 is 1.64 µM and the TGI came out at 3.22 µM.
Turning to `O=C(Cc1cccc(OC(F)(F)F)c1)Nc1ccc(CCCCc2nnc(NC(=O)Cc3ccccn3)s2)nn1`, the GI50 was 7.69 µM and the TGI was determined as 58.5 µM.
As to `O=c1[nH]cnc2[nH]ncc12`, the GI50 was 152 µM and the TGI came to 2680 µM.
With `COc1cc(-c2nc3sc4c(c3c(=O)[nH]2)CCCCCC4)cc(OC)c1OC`, the GI50 is 0.676 µM and the TGI turned out to be 3.01 µM.
